Experimental data taken from US9580487B2, “Method of treating stomach or bowel-related disorders by administering glucagon-like-peptide-2 (GLP-2) analogues” (Zealand Pharma A/S, priority 2005, dated 2017).
“Also recorded” adds a separate entry of the source. No end group written: not given here.

Columns and labels:
male C57BL mice [1] = experiment: Dose-response effect on intestinal growth (SI mass, SI-Colon Sensitivity Index, colon and stomach mass); assay type: in vivo; settings: 5-405 nmol/kg s.c. b.i.d. for three days
Experimental: Values are means±SEM. *: P<0.05 relative to the equimolar dose of [Gly2]GLP-2 (SEQ ID NO:54).
FIG. 2 is a set of graphs showing full dose-response data of four small intestine selective compounds (compound nos. 1846 (SEQ ID NO:34), 1855 (SEQ ID NO:43), 1848 (SEQ ID NO:36), 1858 (SEQ ID NO:46)) on the Small Intestine (SI)-to-Colon Sensitivity Index mice relative to the non-selective reference compound [Gly2]GLP-2 (SEQ ID NO:54). Compounds were administered by subcutaneous injection b.i.d. for three days in C57BL mice at the following doses: 0 (vehicle), 5, 15, 45, 135, 405 nmol/kg (n=6/dose group). Responses at each dose level were compared with responses obtained at the same dose level in pair-treated mice treated with the non-selective reference compound [Gly2]GLP-2 (SEQ ID NO:54). The SI-Colon Sensitivity Index was calculated as SI-mass relative to colon mass and the Sensitivity Index at each dose level was normalized to the response observed with the non-selective reference compound [Gly2]GLP-2 (SEQ ID NO:54). […] Values are means±SEM. *: P<0.05 relative to the equimolar dose of [Gly2]GLP-2.
FIG. 4 is a set of graphs showing full dose-response data of three small intestine selective compounds (compound nos. 1857 (SEQ ID NO:45), 1820 (SEQ ID NO:10), and 1849 (SEQ ID NO:37)) on the Small Intestine (SI)-to-Colon Sensitivity Index mice relative to the non-selective reference compound [Gly2]GLP-2 (SEQ ID NO:54). Compounds were administered by subcutaneous injection b.i.d. for three days in C57BL mice at the following doses: 0 (vehicle), 5, 15, 45, 135, 405 nmol/kg (n=6/dose group). Responses at each dose level were compared with responses obtained at the same dose level in pair-treated mice treated with the non-selective reference compound [Gly2]GLP-2 (SEQ ID NO:54). The SI-Colon Sensitivity Index was calculated as SI-mass relative to colon mass and the Sensitivity Index at each dose level was normalized to the response observed with the non-selective reference compound [Gly2]GLP-2 (SEQ ID NO:54). […] Values are means±SEM. *: P<0.05 relative to the equimolar dose of [Gly2]GLP-2 (SEQ ID NO:54).
Compounds were administered by subcutaneous injection b.i.d. for three days in C57BL mice at the following doses: 0 (vehicle), 5, 15, 45, 135, 405 nmol/kg (n=6/dose group). […] Values are means±SEM. *: P<0.05 relative to the vehicle.
The dose-response effect of 1820 (SEQ ID NO:10), 1855 (SEQ ID NO:43), ZP1846 (SEQ ID NO:34), 1858 (SEQ ID NO:46), 1849 (SEQ ID NO:37), 1848 (SEQ ID NO:36), and 1857 (SEQ ID NO:45) on small intestinal mass was determined in male C57BL mice. Individual groups (n=6) of mice were given 5, 15, 45, 135 or 405 nmol/kg of each compound, s.c, twice daily for three consecutive days. For comparison purposes other groups of animals were given either equimolar doses of [Gly2]GLP-2 (SEQ ID NO:54) or vehicle (phosphate buffered saline, pH 7.4) in the same dosing regimen. Twenty-four hours after the last dose of compound had been given the mice were sacrificed and the small intestine (from the pylorus to the cecum emptied and weighed to determine the effect on small intestinal mass.

male C57BL mice [2] = experiment: Screening for intestinal growth effects (small intestine and colon mass relative to body weight, small intestine-colon sensitivity index); assay type: in vivo; settings: for Small intestine mass relative to [Gly2]GLP-2 / Preferential growth of small intestine versus colon (small intestine-colon sensitivity): 30 nmol/kg s.c. twice daily, ten days; for Small intestine mass relative to [Gly2]GLP-2: equimolar [Gly2]GLP-2; for Preferential growth of small intestine versus colon (small intestine-colon sensitivity): relative to [Gly2]GLP-2; for colon mass relative to body weight, % [Gly2]GLP-2 / small intestine-colon sensitivity index, (SI/Colon)X/(SI/Colon)[Gly2]GLP-2 %: male C57BL mice, 30 nmol/kg s.c. twice daily for ten days; for small intestine-colon sensitivity index, (SI/Colon)X/(SI/Colon)[Gly2]GLP-2 %: third value column
Experimental: The ability of the present compounds to stimulate intestinal growth was determined in male C57BL mice. Individual groups (n=6) of mice were given 30 nmol/kg of each compound, s.c, twice daily for ten consecutive days. For comparison purposes other groups of animals were given either an equimolar dose of [Gly2]GLP-2 (SEQ ID NO:54) or vehicle (phosphate buffered saline, pH 7.4) in the same dosing regimen. Twenty-four hours after the last dose of compound had been given the mice were sacrificed and the small intestine (from the pylorus to the cecum) and the colon (intestine distal to cecum) was emptied and weighed. To correct for slight difference in body weight (BW), the organ mass of the small intestine (SI) and colon were expressed relative to BW. The non-selective reference compound [Gly2]GLP-2 (SEQ ID NO:54) has been reported to stimulate gastrointestinal growth in both esophagus, stomach, small intestine and colon and to evaluate differences in growth pattern induced by compounds, the small intestine-colon sensitivity index of compound X was calculated as:
(SI/Colon)X/(SI/Colon)[Gly2]GLP-2%
Compounds with a small intestine-colon sensitivity greater than or equal to 1.05 were considered relatively selective for the small intestine (Table 15).
Compounds with a small intestine-colon sensitivity smaller than or equal to 0.95 were considered relatively selective for the colon (Table 15).

[3] = Chemical stability testing: incubation in HCl, NaOH, H2O2 or NH4HCO3 at 40° C., remaining purity by RP-HPLC; assay type: physicochemical; settings: 40° C.; for Purity H2O2 0.5% 3 days / Purity HCl 0.1M 12 days / Purity NH4HCO3 0.1M 6 days: 2 mg/ml, relative to the purity at T=0; for Purity H2O2 0.5% 3 days / Purity HCl 0.1M 12 days: RP-HPLC; for Purity NH4HCO3 0.1M 6 days: pH 8, RP-HPLC; for Stability during acid hydrolysis (in words): 0.1 M HCl, 12 days
Experimental: The GLP-2 analogues were dissolved in purified water and subsequently diluted in solutions containing HCl, NaOH, H2O2 or NH4HCO3. The solutions were incubated at 40° C. to produce hydrolysis, deamidation and oxidation products. The samples were analyzed by RP-HPLC and the percentage of remaining intact compound was determined as a measure for the relative stability. The major degradation products were tentatively identified by LC-MS.
The GLP-2 analogues tested and the reference Gly^2-GLP-2, ZP1559 (SEQ ID NO:54), were dissolved in water and subsequently diluted into solutions containing HCl, NaOH, H2O2 or NH4HCO3. The samples were incubated at 40° C. to generate hydrolysis, deamidation and oxidation products, respectively. The compounds were analysed by RP-HPLC for purity of the original main peak and by LC-MS for confirmation of the identity by mass of the main peak and major degradation products.
The GLP-2 analogues were first dissolved in MQW to a concentration of 4 mg/ml and then further diluted in the stress solutions at a 1:1 ratio (e.g. 125 μl plus 125 μl). The final concentrations were 2 mg/ml of the GLP-2 analogues for stress conditions with 0.1 M HCl, 0.01M NaOH, 0.1 M NH4HCO3 and 0.5% H2O2, respectively.
The solutions were incubated at 40° C. in the dark and then diluted in Eluent A to a concentration of 0.5 mg/ml (addition of 750 μl) prior to analyses by RP-HPLC and by LC-MS.
The RP-HPLC analyses were performed on an Agilent Series 1100 HPLC system under control of the ChemStation (Revision A.08.03 [847]) software from Agilent Technologies, Inc. The raw data and the results of the peak integration were deposited on the ChemStore C/S server by the use of Agilent Technologies Revision B01.03 software.
The results are shown in Table 9 as the compound purity measured by RP-HPLC after incubation under stress conditions. This purity is a measure for the remaining intact compound after incubation in stress solutions, relative to the purity measured a T=0.

Substance	SI-Colon Sensitivity Index (SI mass relative to colon mass) relative to [Gly2]GLP-2 (male C57BL mice [1])	Small intestinal mass (SI-BW ratio), maximal response relative to [Gly2]GLP-2 (male C57BL mice [1])	Small intestine mass relative to [Gly2]GLP-2 (male C57BL mice [2])	Preferential growth of small intestine versus colon (small intestine-colon sensitivity) (male C57BL mice [2])	colon mass relative to body weight, % [Gly2]GLP-2 (male C57BL mice [2])	small intestine-colon sensitivity index, (SI/Colon)X/(SI/Colon)[Gly2]GLP-2 % (male C57BL mice [2])	Purity H2O2 0.5% 3 days [3]	Purity HCl 0.1M 12 days [3]	Purity NH4HCO3 0.1M 6 days [3]	Stability during acid hydrolysis (in words) [3]
[Gly2, Glu3, Ser8, Leu10, Ala11,16,24,28]hGLP-2(1-33)-(Lys)6-NH2 (HGEGSFSSELATILDALAARDFIAWLIATKITDKKKKKK-NH2) [Compound 1849]	increased maximal small intestinal sensitivity relative to [Gly2]GLP-2; also recorded: increased selectivity for causing growth of the small intestine relative to the colon	maximal responses that were significantly greater than [Gly2]GLP-2	increased small intestine mass relative to [Gly2]GLP-2	supplementary increase in the weight of the small intestine without significant effecting the weight of the colon; also recorded: preferentially stimulating epithelial growth in the small intestine	95 % [Gly2]GLP-2	115 % [Gly2]GLP-2	78%	64%	86%	–
[Gly2, Glu3, Ser8, Leu10, Ala11,16,24,28]hGLP-2(1-33)-NH2 (HGEGSFSSELATILDALAARDFIAWLIATKITD-NH2) [Compound 1858]	–	maximal responses that were significant greater than [Gly2]GLP-2	increased small intestine mass relative to [Gly2]GLP-2	supplementary increase in the weight of the small intestine without significant effecting the weight of the colon; also recorded: preferentially stimulating epithelial growth in the small intestine	96 % [Gly2]GLP-2	108 % [Gly2]GLP-2	60%	88%	91%	tendency of slightly higher stability
[Gly2, Thr7, Ser8, Leu10, Ala11,24]hGLP-2(1-30)-K6-NH2 [Compound 1820]	increased maximal small intestinal sensitivity relative to [Gly2]GLP-2	maximal responses that were significantly greater than [Gly2]GLP-2	increased small intestine mass relative to [Gly2]GLP-2	supplementary increase in the weight of the small intestine without significant effecting the weight of the colon; also recorded: preferentially stimulating epithelial growth in the small intestine	–	–	62%	45%	85%	less stable than the remaining six candidates due to acid hydrolysis
[Gly2, Thr7, Ser8, Leu10, Ala11,24]hGLP-2(1-30)-NH2 (HGDGSFTSELATILDNLAARDFIAWLIQTK-NH2) [Compound 1834]	–	–	–	without preferential growth in small intestine or colon	–	–	53%	38%	91%	less stable than the remaining six candidates due to acid hydrolysis
[Thr7, Leu10, Ala11, Ala24]hGLP-2 (1-30)-NH2 [Compound 1843]	–	–	–	preferentially stimulating epithelial growth in the colon	130 % [Gly2]GLP-2	85 % [Gly2]GLP-2	–	–	–	–
[Thr7, Ser8, Leu10, Lys11, Ala24]hGLP-2 (1-30)-NH2 [Compound 1842]	–	–	–	without preferential growth in small intestine or colon	–	–	–	–	–	–
